Experimental data published in ChEMBL document CHEMBL1201862, “PubChem BioAssay data set” (2004).
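48-hour exposure; five concentrations; linearly interpolated endpoints. GI50: concentration for 50% inhibition of growth.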 Activity calls are given as the source filed them. No stated cut-off is given here; in the data, active = GI50 up to about 1.1 µM and inactive = higher.

Legend:
Test in all cases: growth of human tumour cells (NCI), 48 h
OVCAR-4 = system: OVCAR-4
SNB-78 = system: SNB-78
RXF 393 = system: RXF 393
HT-29 = system: HT-29
LOX IMVI = system: LOX IMVI
ACHN = system: ACHN
COLO 205 = system: COLO 205
UACC-257 = system: UACC-257
HOP-92 = system: HOP-92
786-0 = system: 786-0
SK-MEL-5 = system: SK-MEL-5
A549 = system: A549
EKVX = system: EKVX
U-251 = system: U-251
SK-MEL-28 = system: SK-MEL-28
A498 = system: A498
KM-20L2 = system: KM-20L2
SF-539 = system: SF-539
M19-MEL = system: M19-MEL
NCI-H226 = system: NCI-H226
UACC-62 = system: UACC-62
OVCAR-8 = system: OVCAR-8
NCI-H522 = system: NCI-H522
CCRF-CEM = system: CCRF-CEM
K562 = system: K562
SW-620 = system: SW-620
UO-31 = system: UO-31
SNB-75 = system: SNB-75
TK-10 = system: TK-10
SK-OV-3 = system: SK-OV-3
MOLT-4 = system: MOLT-4
HOP-62 = system: HOP-62
DMS-273 = system: DMS-273
NCI-H460 = system: NCI-H460
OVCAR-3 = system: OVCAR-3
XF498 = system: XF498
RPMI-8226 = system: RPMI-8226
HCT-116 = system: HCT-116
SN12C = system: SN12C
KM12 = system: KM12
IGROV-1 = system: IGROV-1
LXFL 529 = system: LXFL 529
SNB-19 = system: SNB-19
Malme-3M = system: Malme-3M
CAKI-1 = system: CAKI-1
SK-MEL-2 = system: SK-MEL-2
HCC 2998 = system: HCC 2998
OVCAR-5 = system: OVCAR-5
SF-268 = system: SF-268
HCT-15 = system: HCT-15
HOP-18 = system: HOP-18
NCI-H23 = system: NCI-H23
M14 = system: M14
DLD-1 = system: DLD-1
SR = system: SR
SF-295 = system: SF-295

Measured: GI50

NC(=O)c1ccccc1NC(=O)C(=O)C(C(=O)c1ccc2ccccc2c1)C1OC(=O)c2ccccc21 (stereo unspecified)
16.7 µM: HCT-15
inactive: OVCAR-4 11.6 µM | SNB-78 10.5 µM | RXF 393 2.09 µM | HT-29 27.8 µM | LOX IMVI 11.3 µM | ACHN > 100 µM | COLO 205 11.7 µM | UACC-257 13.3 µM | HOP-92 6.79 µM | 786-0 6.25 µM | SK-MEL-5 12 µM | A549 16.3 µM | EKVX 26.5 µM | U-251 4.86 µM | SK-MEL-28 7.23 µM | A498 > 100 µM | KM-20L2 28.3 µM | SF-539 4.6 µM | M19-MEL 11.1 µM | NCI-H226 2.85 µM | UACC-62 10.4 µM | OVCAR-8 7.66 µM | NCI-H522 14 µM | CCRF-CEM 10.3 µM | K562 16.5 µM | SW-620 8.24 µM | UO-31 13.2 µM | SNB-75 8.15 µM | TK-10 22.6 µM | SK-OV-3 14.6 µM | MOLT-4 3.49 µM | HOP-62 10.2 µM | DMS-273 12.5 µM | NCI-H460 > 100 µM | OVCAR-3 11.7 µM | XF498 2.59 µM | RPMI-8226 8.91 µM | HCT-116 9.71 µM | SN12C 15.9 µM | KM12 18.9 µM | IGROV-1 14.8 µM | LXFL 529 8.17 µM | SNB-19 4.04 µM | Malme-3M 10.4 µM | CAKI-1 7.67 µM | SK-MEL-2 14.8 µM | HCC 2998 7.1 µM | OVCAR-5 24 µM | SF-268 4.48 µM | HOP-18 1.34 µM | NCI-H23 9.66 µM | M14 14.3 µM

Cc1ccc(C2=C(c3ccccc3)C(=O)C(c3ccccc3)=C2c2ccc(C)cc2)cc1
32.4 µM: HCT-15
inactive: DLD-1 41.2 µM | SNB-78 31.6 µM | RXF 393 26.4 µM | HT-29 33.5 µM | ACHN 32.3 µM | UACC-257 39.4 µM | 786-0 34.8 µM | SK-MEL-5 55.1 µM | A549 43.7 µM | EKVX 38 µM | U-251 25.1 µM | SK-MEL-28 21.9 µM | A498 > 100 µM | KM-20L2 45.8 µM | SF-539 18.3 µM | M19-MEL 41.1 µM | NCI-H226 65.5 µM | OVCAR-8 73.6 µM | NCI-H522 72.9 µM | CCRF-CEM 17.2 µM | K562 22.1 µM | SW-620 37.9 µM | UO-31 > 100 µM | SNB-75 87.3 µM | TK-10 45.6 µM | SK-OV-3 > 100 µM | MOLT-4 14.5 µM | HOP-62 > 100 µM | SR 58.5 µM | NCI-H460 36.1 µM | XF498 35.3 µM | RPMI-8226 29.1 µM | HCT-116 31.4 µM | SN12C 66.5 µM | KM12 36.5 µM | IGROV-1 > 100 µM | LXFL 529 68.7 µM | SNB-19 54.3 µM | SF-295 18.4 µM | Malme-3M 31 µM | SK-MEL-2 6.79 µM | HCC 2998 > 100 µM | OVCAR-5 > 100 µM | SF-268 32.1 µM | HOP-18 > 100 µM | NCI-H23 31.1 µM | M14 > 100 µM
